Here are results for four compounds from patent US5491129A, “Synthetic peptides derived from vitronectin and pharmaceutical compositions comprising them” (Yeda Research and Development Co. Ltd., priority 1992, dated 1996).

Assay [1] concerns the target T1, PAI-1 (Homo sapiens, UniProt P05121). In words: Competition ELISA: binding of vitronectin onto immobilized activated PAI-1. The arrangement: purchased American Diagnostica, New York. The conditions noted are these: for level of inhibition achieved: FIG. 7, vitronectin 0.5 μg/ml, increasing peptide concentrations. As to the method:
Protein concentration was determined by the method described by Bradford, 1976. The binding of vitronectin to immobilized PAI-1 was conducted as described by Salonen et al., 1989. The activation of PAI-1 by sodium dodecylsulfate was carried out as described by Katagiri et al., 1988. Amino acid sequencing was performed with an Applied Biosystem 475A sequencer.
Each of the synthetic peptides shown in Scheme I and each of the peptides containing amino acids with a D configuration (BP7, BP8 and BP14) was tested by a competition ELISA assay for its ability to inhibit the binding of vitronectin to immobilized activated PAI-1. The first screening (FIGS. 3A-3D) was carried out with an identical molar concentration (25 μM) of the peptides. In view of a possible variability in such tests (mainly due to some variability in the activated PAI-1 coating of the plates), a control of vitronectin alone was run alongside in each plate for reference.
The various synthetic peptides (all 50 μM) were dissolved in 50 μl of a buffer composed of PBS, Tween 20 (0.01%), polyethylene-glycol (average M.W. 8 kDa) (4% w/v). Each of the samples was added to a microtiter well coated with SDS-activated PAI, prepared as described by Katagiri et al., 1988. After an incubation of 30 min at 22° C., aliquots (50 μl) of a vitronectin solution (at various concentrations) in the same buffer were added to each well. This was followed by an incubation for 2 hrs at 37° C. The amount of bound vitronectin was determined with specific rabbit anti-human Vn antibodies (1:1000 dilution), followed by a β-galactosidase-linked protein A and using o-nitrophenyl-β-D-galactopyranoside (ONPG) as a substrate. The enzymatic reaction was allowed to proceed and the absorbance at 405+490 nm was measured. Each point in the graphs represents the mean of triplicate determinations. […]

The target of assay [2] is T1, PAI-1. Nature of the assay: Release of PAI-1 activity by endothelial cells in culture. The conditions noted are these: human endothelial cell system, 6 hours, control = 100%. Type of assay: cell-based. The method, then: PAI-1 is determined in the supernatant of HUVEC cells according to the method of Chmielewska et al., 1983. Briefly, cells are cultured in semiconfluent way with or without ECM. The culture medium is changed for Hank's balanced salt solution with 2% FCS and the tested substances with or without added plasmin (5 μg/ml) are diluted in this buffer and incubated with the cells for 6 hours. Samples from the cell supernatant are assayed for the PAI-1 activity.
For the PAI-1 assay, the cell supernatant is incubated with a fixed amount of tPA (40 U/ml) and the residual activity of the tPA is determined by a substrate composed of plasminogen (0.1μg/ml), chromogenic substrate (S-2251) and stimulator (Kabi, Sweden). After incubation with the substrate, O.D. is measured at 405 run and the amount of the inhibitor is calculated from calibration curve. PAI-1 antigen may also be determined with commercial kits.

Where a SMILES comes first, the peptide text is derived from it. Where no end group is shown, it is not given here.

T1 sequence (P05121 24-402): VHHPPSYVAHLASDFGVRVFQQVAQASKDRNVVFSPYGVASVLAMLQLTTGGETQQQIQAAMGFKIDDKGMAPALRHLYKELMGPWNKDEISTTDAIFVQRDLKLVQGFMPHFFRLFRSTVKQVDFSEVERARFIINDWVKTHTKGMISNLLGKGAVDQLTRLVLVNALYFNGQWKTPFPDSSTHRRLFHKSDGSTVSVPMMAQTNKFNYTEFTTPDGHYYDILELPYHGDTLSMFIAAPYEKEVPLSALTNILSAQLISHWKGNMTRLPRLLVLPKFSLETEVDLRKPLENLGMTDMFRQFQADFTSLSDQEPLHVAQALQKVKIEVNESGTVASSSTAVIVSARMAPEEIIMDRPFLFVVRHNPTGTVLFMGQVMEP

Take `C[C@H](NC(=O)[C@H](CCCNC(=N)N)NC(=O)[C@H](CO)NC(=O)[C@@H]1CCCN1C(=O)[C@H](CCCNC(=N)N)NC(=O)[C@H](CCCNC(=N)N)NC(=O)[C@H](CO)NC(=O)[C@H](CC(N)=O)NC(=O)[C@H](CCC(N)=O)NC(=O)[C@H](CC(N)=O)NC(=O)[C@H](CCCNC(=N)N)NC(=O)CNC(=O)[C@H](CCCNC(=N)N)NC(=O)[C@H](CO)NC(=O)[C@H](Cc1c[nH]cn1)NC(=O)CNC(=O)[C@H](CCCNC(=N)N)NC(=O)[C@H](CCC(N)=O)NC(=O)[C@@H](N)CO)C(=O)O` [BP4] (H-SQRGHSRGRNQNSRRPSRA-OH): the “level of inhibition achieved” value at PAI-1 [1] is recorded as “approximately 65%”. Moreover, the PAI-1 activity increase over control at 10 µM on PAI-1 [2] (1 × 10^-5 M, read-out: PAI activity % above control (mean)) is 29%. The PAI-1 activity increase over control at 1 µM on PAI-1 [2] (1 × 10^-6 M, read-out: PAI activity % above control (mean)) amounted to 47%. In addition, the PAI-1 activity increase over control at 0.1 µM at PAI-1 [2] (1 × 10^-7 M, read-out: PAI activity % above control (mean)) was 0%. Besides, the PAI-1 activity increase over control at 0.33 µM on PAI-1 [2] (3.3 × 10^-7 M, read-out: PAI activity % above control (mean)) was determined as 17%.

Turning to `N=C(N)NCCC[C@H](NC(=O)CNC(=O)[C@H](CCCNC(=N)N)NC(=O)[C@H](CO)NC(=O)[C@H](Cc1c[nH]cn1)NC(=O)CNC(=O)[C@H](CCCNC(=N)N)NC(=O)[C@H](CCC(N)=O)NC(=O)[C@H](CO)NC(=O)[C@H](CCCNC(=N)N)NC(=O)[C@H](Cc1ccc(O)cc1)NC(=O)CNC(=O)[C@@H](N)CCCCN)C(=O)O` [BP5] (H-KGYRSQRGHSRGR-OH), the “level of inhibition achieved” value at PAI-1 [1] is given as “approximately 65%”.

Take `N=C(N)NCCC[C@H](NC(=O)[C@H](Cc1ccc(O)cc1)NC(=O)CNC(=O)[C@H](CCCCN)NC(=O)[C@H](CCCNC(=N)N)NC(=O)[C@H](CC(N)=O)NC(=O)[C@H](CCCNC(=N)N)NC(=O)[C@H](Cc1c[nH]cn1)NC(=O)[C@H](CCCNC(=N)N)NC(=O)[C@H](Cc1ccccc1)NC(=O)[C@H](CCCNC(=N)N)NC(=O)[C@H](CCC(N)=O)NC(=O)[C@H](CCCCN)NC(=O)[C@@H](N)CCCCN)C(=O)N[C@@H](CO)C(=O)N[C@@H](CCC(N)=O)C(=O)O` [BP6] (H-KKQRFRHRNRKGYRSQ-OH): the “level of inhibition achieved” value at PAI-1 [1] is reported as “approximately 65%”. Moreover, the PAI-1 activity decrease below control at 10 µM on PAI-1 [2] (1 × 10^-5 M) is 19.5%. At PAI-1 [2] (1 × 10^-6 M), this compound yielded a PAI-1 activity decrease below control at 1 µM of 36.5%. For the same compound, at PAI-1 [2] (1 × 10^-7 M), the PAI-1 activity decrease below control at 0.1 µM was found to be 19%. Also, the PAI-1 activity decrease below control at 0.01 µM at PAI-1 [2] (1 × 10^-8 M) amounted to 19%. The compound also had a PAI-1 activity decrease below control at 0.33 µM on PAI-1 [2] (3.3 × 10^-7 M) of 39%.

“BP7: same sequence as BP6 (K348-Q363) but the underlined residues in Scheme II have D configuration (KKQRFRHRNRKGYRSQ; also: some residues are D-form, positions not given here (underlining not shown))”: the “binding to immobilized PAI-1 (effect on vitronectin binding)” value in the assay with PAI-1 [1] (D-configuration peptides, 1-10 μM, FIG. 8) is given as “bind to immobilized PAI-1”.
